According to patent US20230092890A1, “1, 3, 4-Oxadiazole derivative compounds as histone deacetylase 6 inhibitor, and the pharmaceutical composition comprising the same” (Chong Kun Dang Pharmaceutical Corp., priority 2019, published 2023):

Tests used:
[1] = biological target: T1, HDAC1 (Homo sapiens, UniProt Q13547); experiment: HDAC enzyme activity inhibition (in vitro), HDAC1 Fluorimetric Drug Discovery Assay Kit; assay type: biochemical; settings: samples at 100, 1000 and 10000 nM; 37° C. 60 minutes; fluorescence Ex 390, Em 460; read-out: HDAC1 IC50
T1 construct: purchased Enzolifesciences BML-AK511
T1 sequence (Q13547 whole entry): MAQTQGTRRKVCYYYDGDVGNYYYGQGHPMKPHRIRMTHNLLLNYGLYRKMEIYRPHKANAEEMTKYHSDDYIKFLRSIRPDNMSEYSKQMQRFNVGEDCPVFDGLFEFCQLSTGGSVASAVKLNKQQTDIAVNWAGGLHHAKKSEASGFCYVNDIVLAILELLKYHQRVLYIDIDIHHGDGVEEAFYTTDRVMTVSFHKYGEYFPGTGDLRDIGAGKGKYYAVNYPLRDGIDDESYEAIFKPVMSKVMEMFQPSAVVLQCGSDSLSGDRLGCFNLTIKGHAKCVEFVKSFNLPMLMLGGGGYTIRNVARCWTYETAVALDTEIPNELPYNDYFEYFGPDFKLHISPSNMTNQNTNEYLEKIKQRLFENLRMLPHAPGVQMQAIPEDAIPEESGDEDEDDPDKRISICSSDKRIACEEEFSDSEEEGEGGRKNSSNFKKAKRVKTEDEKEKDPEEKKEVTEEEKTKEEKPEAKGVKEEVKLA
Summary of the method: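 Compounds at 100, 1000, 10000 nM (HDAC1) or 0.1, 1, 10, 100, 1000 nM (HDAC6); 37° C, 60 min; developer, 37° C, 30 min; fluorescence Ex 390/Em 460.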

[2] = biological target: T2, HDAC6 human recombinant (Homo sapiens, UniProt Q9UBN7); experiment: HDAC enzyme activity inhibition (in vitro), HDAC6 assay; assay type: biochemical; settings: samples at 0.1, 1, 10, 100 and 1000 nM; 37° C. 60 minutes; fluorescence Ex 390, Em 460; read-out: HDAC6 IC50
T2 construct: purchased Calbiochem 382180
T2 sequence (Q9UBN7 1-1215): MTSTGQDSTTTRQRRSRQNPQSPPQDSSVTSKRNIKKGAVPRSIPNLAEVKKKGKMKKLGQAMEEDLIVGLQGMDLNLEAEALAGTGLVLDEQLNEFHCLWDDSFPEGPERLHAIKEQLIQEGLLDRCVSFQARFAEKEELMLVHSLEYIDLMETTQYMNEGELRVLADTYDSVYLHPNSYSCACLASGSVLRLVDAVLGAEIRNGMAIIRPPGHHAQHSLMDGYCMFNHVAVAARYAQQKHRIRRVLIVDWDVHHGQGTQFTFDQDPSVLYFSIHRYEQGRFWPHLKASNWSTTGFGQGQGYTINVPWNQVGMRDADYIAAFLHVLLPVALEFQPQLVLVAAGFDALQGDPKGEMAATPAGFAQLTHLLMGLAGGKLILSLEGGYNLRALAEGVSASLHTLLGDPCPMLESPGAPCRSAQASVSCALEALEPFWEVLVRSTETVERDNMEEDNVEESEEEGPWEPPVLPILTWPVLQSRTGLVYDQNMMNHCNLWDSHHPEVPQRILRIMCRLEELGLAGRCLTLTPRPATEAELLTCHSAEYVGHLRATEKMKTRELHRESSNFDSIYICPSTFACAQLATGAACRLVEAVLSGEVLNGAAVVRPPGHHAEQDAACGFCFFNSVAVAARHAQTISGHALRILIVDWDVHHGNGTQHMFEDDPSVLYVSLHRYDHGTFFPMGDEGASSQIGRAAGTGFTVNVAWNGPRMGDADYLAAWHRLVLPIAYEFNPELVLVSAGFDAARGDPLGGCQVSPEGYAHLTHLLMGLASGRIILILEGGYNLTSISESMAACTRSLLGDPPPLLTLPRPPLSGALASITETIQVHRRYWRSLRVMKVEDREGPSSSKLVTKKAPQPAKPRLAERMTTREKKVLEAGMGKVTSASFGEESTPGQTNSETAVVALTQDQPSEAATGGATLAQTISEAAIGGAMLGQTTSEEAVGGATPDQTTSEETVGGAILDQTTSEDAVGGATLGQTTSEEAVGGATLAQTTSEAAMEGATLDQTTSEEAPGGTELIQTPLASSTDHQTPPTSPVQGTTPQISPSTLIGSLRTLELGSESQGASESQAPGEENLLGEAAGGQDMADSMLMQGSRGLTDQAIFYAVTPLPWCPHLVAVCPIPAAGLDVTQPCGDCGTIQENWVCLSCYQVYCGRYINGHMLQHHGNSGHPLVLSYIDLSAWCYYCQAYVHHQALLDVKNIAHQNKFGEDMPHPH
Summary of the method: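 HDAC6 human recombinant enzyme with fluorimetric substrate; […]. Reaction 60 min at 37° C, then developer 30 min at 37° C; fluorescence read at Ex 390/Em 460.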

Cn1c(=O)n(Cc2ccc(-c3nnc(C(F)F)o3)cn2)c2cc(F)c(N3CCN(Cc4cccnc4)CC3)cc21 [Compound 303, 1-((5-(5-(difluoromethyl)-1,3,4-oxadiazole-2-yl)pyridine-2-yl)methyl)-6-fluoro-3-methy 1-5-(4-(pyridine-3-ylmethyl)piperazine-1-yl)-1,3-dihydro-2H-benzo[d]imidazole-2-one]
IC50 [1]: > 10000 nM
IC50 [2]: 29 nM

O=c1oc2cc(-c3cccnc3)ccc2n1Cc1ccc(-c2nnc(C(F)F)o2)cn1 [Compound 304, 3-((5-(5-(difluoromethyl)-1,3,4-oxadiazole-2-yl)pyridine-2-yl)methyl)-6-(pyridine-3-yl) benzo[d]oxazole-2(3H)-one]
IC50 [1]: > 10000 nM
IC50 [2]: 37 nM

O=c1oc2cc(-c3ccncc3)ccc2n1Cc1ccc(-c2nnc(C(F)F)o2)cn1 [Compound 305, 3-((5-(5-(difluoromethyl)-1,3,4-oxadiazole-2-yl)pyridine-2-yl)methyl)-6-(pyridine-4-yl) benzo[d]oxazole-2(3H)-one]
IC50 [1]: > 10000 nM
IC50 [2]: 50 nM

O=c1oc2cc(-c3cccc4[nH]ccc34)ccc2n1Cc1ccc(-c2nnc(C(F)F)o2)cn1 [Compound 306, 3-((5-(5-(difluoromethyl)-1,3,4-oxadiazole-2-yl)pyridine-2-yl)methyl)-6-(1H-indole-4-yl)benzo[d]oxazole-2(3H)-one]
IC50 [1]: > 10000 nM
IC50 [2]: 34 nM

CC(C)(C)OC(=O)N1CCC(c2ccc3c(c2)oc(=O)n3Cc2ccc(-c3nnc(C(F)F)o3)cn2)CC1 [Compound 307, tert-butyl 4-(3-((5-(5-(difluoromethyl)-1,3,4-oxadiazole-2-yl)pyridine-2-yl)methyl)-2-oxo-2,3-dihydrobenzo[d]oxazole-6-yl)piperidine-1-carboxylate]
IC50 [1]: > 10000 nM
IC50 [2]: 399 nM

O=c1oc2cc(C3CCNCC3)ccc2n1Cc1ccc(-c2nnc(C(F)F)o2)cn1 [Compound 308, 3-((5-(5-(difluoromethyl)-1,3,4-oxadiazole-2-yl)pyridine-2-yl)methyl)-6-(piperidine-4-yl)benzo[d]oxazole-2(3H)-one]
IC50 [1]: > 10000 nM
IC50 [2]: 456 nM

CN1CCC(c2ccc3c(c2)oc(=O)n3Cc2ccc(-c3nnc(C(F)F)o3)cn2)CC1 [Compound 309, 3-((5-(5-(difluoromethyl)-1,3,4-oxadiazole-2-yl)pyridine-2-yl)methyl)-6-(1-methylpiperidine-4-yl)benzo[d]oxazole-2(3H)-one]
IC50 [1]: > 10000 nM
IC50 [2]: 53 nM

O=c1n(Cc2ccc(-c3nnc(C(F)F)o3)cn2)c2cc(F)c(-c3cccc4[nH]ccc34)cc2n1C1CN(C2COC2)C1 [Compound 310, 1-((5-(5-(difluoromethyl)-1,3,4-oxadiazole-2-yl)pyridine-2-yl)methyl)-6-fluoro-5-(1H-indole-4-yl)-3-(1-(oxetan-3-yl)azetidine-3-yl)-1,3-dihydro-2H-benzo[d]imidazole-2-one]
IC50 [1]: > 10000 nM
IC50 [2]: 6 nM

O=c1n(Cc2ccc(-c3nnc(C(F)F)o3)cn2)c2cc(F)c(-c3cccnc3)cc2n1C1CN(C2COC2)C1 [Compound 311, 1-((5-(5-(difluoromethyl)-1,3,4-oxadiazole-2-yl)pyridine-2-yl)methyl)-6-fluoro-3-(1-(oxetan-3-yl)azetidine-3-yl)-5-(pyridine-3-yl)-1,3-dihydro-2H-benzo[d]imidazole-2-one]
IC50 [1]: > 10000 nM
IC50 [2]: 12 nM

O=c1n(Cc2ccc(-c3nnc(C(F)F)o3)cn2)c2cc(F)c(-c3cn[nH]c3)cc2n1C1CN(C2COC2)C1 [Compound 312, 1-((5-(5-(difluoromethyl)-1,3,4-oxadiazole-2-yl)pyridine-2-yl)methyl)-6-fluoro-3-(1-(oxetan-3-yl)azetidine-3-yl)-5-(1H-pyrazole-4-yl)-1,3-dihydro-2H-benzo[d]imidazole-2-one]
IC50 [1]: > 10000 nM
IC50 [2]: 6 nM

CC(C)N1CCC(c2ccc3c(c2)oc(=O)n3Cc2ccc(-c3nnc(C(F)F)o3)cn2)CC1 [Compound 313, 3-((5-(5-(difluoromethyl)-1,3,4-oxadiazole-2-yl)pyridine-2-yl)methyl)-6-(1-isopropylpiperidine-4-yl)benzo[d]oxazole-2(3H)-one]
IC50 [1]: > 10000 nM
IC50 [2]: 165 nM

O=c1oc2cc(C3CCN(C4COC4)CC3)ccc2n1Cc1ccc(-c2nnc(C(F)F)o2)cn1 [Compound 314, 3-((5-(5-(difluoromethyl)-1,3,4-oxadiazole-2-yl)pyridine-2-yl)methyl)-6-(1-(oxetan-3-yl)piperidine-4-yl)benzo[d]oxazole-2(3H)-one]
IC50 [1]: > 10000 nM
IC50 [2]: 112 nM

O=c1oc2cc(C3CCN(C4CCC4)CC3)ccc2n1Cc1ccc(-c2nnc(C(F)F)o2)cn1 [Compound 315, 6-(1-cyclobutylpiperidine-4-yl)-3-((5-(5-(difluoromethyl)-1,3,4-oxadiazole-2-yl)pyridine-2-yl)methyl)benzo[d]oxazole-2(3H)-one]
IC50 [1]: > 10000 nM
IC50 [2]: 118 nM

CC(C)(C)OC(=O)N1CCN(c2cc3oc(=O)n(Cc4ccc(-c5nnc(C(F)F)o5)cn4)c3cc2F)CC1 [Compound 316, tert-butyl 4-(3-((5-(5-(difluoromethyl)-1,3,4-oxadiazole-2-yl)pyridine-2-yl)methyl)-5-fluoro-2-oxo-2,3-dihydrobenzo[d]oxazole-6-yl)piperazine-1-carboxylate]
IC50 [1]: > 10000 nM
IC50 [2]: 91 nM

CN1CCN(c2cc3oc(=O)n(Cc4ccc(-c5nnc(C(F)F)o5)cn4)c3cc2F)CC1 [Compound 317, 3-((5-(5-(difluoromethyl)-1,3,4-oxadiazole-2-yl)pyridine-2-yl)methyl)-5-fluoro-6-(4-methylpiperazine-1-yl)benzo[d]oxazole-2(3H)-one]
IC50 [1]: > 10000 nM
IC50 [2]: 15 nM

O=c1oc2cc(N3CCN(C4COC4)CC3)c(F)cc2n1Cc1ccc(-c2nnc(C(F)F)o2)cn1 [Compound 318, 3-((5-(5-(difluoromethyl)-1,3,4-oxadiazole-2-yl)pyridine-2-yl)methyl)-5-fluoro-6-(4-(oxetan-3-yl)piperazine-1-yl)benzo[d]oxazole-2(3H)-one]
IC50 [1]: > 10000 nM
IC50 [2]: 56 nM

CN1CCN(c2cc3c(cc2F)n(Cc2ccc(-c4nnc(C(F)F)o4)cn2)c(=O)n3C2COC2)CC1 [Compound 319, 1-((5-(5-(difluoromethyl)-1,3,4-oxadiazole-2-yl)pyridine-2-yl)methyl)-6-fluoro-5-(4-methylpiperazine-1-yl)-3-(oxetan-3-yl)-1,3-dihydro-2H-benzo[d]imidazole-2-one]
IC50 [1]: > 10000 nM
IC50 [2]: 39 nM

O=c1n(Cc2ccc(-c3nnc(C(F)F)o3)cn2)c2cc(F)c(N3CCN(C4CCC4)CC3)cc2n1C1COC1 [Compound 320, 5-(4-cyclobutylpiperazine-1-yl)-1-((5-(5-(difluoromethyl)-1,3,4-oxadiazole-2-yl)pyridine-2-yl)methyl)-6-fluoro-3-(oxetan-3-yl)-1,3-dihydro-2H-benzo[d]imidazole-2-one]
IC50 [1]: > 10000 nM
IC50 [2]: 41 nM

O=c1n(Cc2ccc(-c3nnc(C(F)F)o3)cn2)c2cc(F)c(N3CCN(C4COC4)CC3)cc2n1C1COC1 [Compound 321, 1-((5-(5-(difluoromethyl)-1,3,4-oxadiazole-2-yl)pyridine-2-yl)methyl)-6-fluoro-3-(oxetan-3-yl)-5-(4-(oxetan-3-yl)piperazine-1-yl)-1,3-dihydro-2H-benzo[d]imidazole-2-one]
IC50 [1]: > 10000 nM
IC50 [2]: 53 nM
